Results taken from US9023797B2 (priority 2012, dated 2015).

Tested on: Virus
Test: Design of Experiment study of viral inactivation process variables
Type: cell-based
Conditions: 30 mM caprylate, albumin 5%, pH 4.4, 40° C., 120 min

With CCCCCCCC(=O)O [caprylate, octanoic acid] the “predicted LRV (equivalent of 100%)” value was 2.16 and the “predicted LRV on the 0 to 100 scale (maximized)” value was 100%.
